Here are results for eleven compounds from patent US11344548B2, “Analogs of 3,5-dihydroxypentanoate for bone formation” (KAOHSIUNG MEDICAL UNIVERSITY, priority 2015, dated 2022).

For one data set, the target named is T1, HMG-CoA reductase (Homo sapiens, UniProt P04035).
T1 sequence (P04035 426-888 limits assumed): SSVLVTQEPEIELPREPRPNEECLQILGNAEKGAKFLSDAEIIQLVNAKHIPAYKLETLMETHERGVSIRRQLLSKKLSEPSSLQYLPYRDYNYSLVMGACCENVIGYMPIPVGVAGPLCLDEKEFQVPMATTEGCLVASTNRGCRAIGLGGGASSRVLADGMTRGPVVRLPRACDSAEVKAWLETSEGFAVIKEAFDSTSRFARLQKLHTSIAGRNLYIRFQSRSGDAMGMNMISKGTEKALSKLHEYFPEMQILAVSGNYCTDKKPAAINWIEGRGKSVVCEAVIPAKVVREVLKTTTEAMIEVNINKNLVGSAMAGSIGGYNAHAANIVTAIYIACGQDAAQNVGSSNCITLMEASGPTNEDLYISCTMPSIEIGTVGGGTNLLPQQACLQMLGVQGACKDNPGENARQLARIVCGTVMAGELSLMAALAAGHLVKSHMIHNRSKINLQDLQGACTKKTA
Put plainly: HMG-CoA reductase inhibition. To be noted: for IC50: HMG-CoA reductase 17.4 nM final, absorbance 340 nm; for effective inhibitory concentration compared with simvastatin: HMG-CoA reductase. The format is biochemical. The procedure:
HMG-CoA Reductase Inhibition
A 0.1 M phosphate buffer containing 100 μM […], 330 μM NADPH, 2% DMSO and 1 mg/mL BSA was firstly prepared. Compounds 1 and 4˜11 were added dissolved in phosphate buffer at various concentrations, then added HMG-CoA reductase (the final concentration is 17.4 nM) and mixed for 5 minutes. The absorbance of the solution was measured at 340 nm. The IC50 values were analyzed via nonlinear least-squares using Sigma 10 to determine the HMG-CoA reductase inhibition of compounds.

The next data set in a line: Solubility comparison. The format is physicochemical. Conditions: compared with simvastatin.
The subject of data set [1] is D1 cells. In words: Cytotoxicity MTT assay on D1 cells. In kind it is cell-based, rat. To be noted: for IC50: Rattus norvegicus, 72 h, MTT, 3 days. The procedure: D1 cell is more sensitive than hADSC cell by drug treatment.
The cytotoxicity of compounds 4˜11 was analyzed using MTT assay. D1 cells were cultured to an initial culture density of 5×10^3 cells per well in a bone medium. The bone medium was a DMEM medium containing 10% Fetal bovine serum (FBS), 100 U/mL penicillin, 100 μg/mL streptomycin, […] ascorbic acid, 1% non-essential amino acids (NEAA) and 1.5 g sodium bicarbonate. After the cells were seeded, the bone medium with compounds 4˜11 respectively was set as the experimental group, the bone medium without compound was set as the blank test group, and all were cultured at 37° C. for 3 days. The MTT agent was added to the culture medium for 3 hours, then the medium was removed and the cells were washed with PBS, and 100 μL of DMSO was added to the wells to promote the dissolution of formazan. The DMSO solution containing formazan was measured using UV spectrophotometer at 595 nm wavelength, and the survival of cells was judged by the value of absorbance.
In general terms: Tetrazolium assays rely on reduction of a dye to a coloured formazan, in cell work by metabolically active cells.

Data set [2] deals with D1 cells. In kind it is cell-based. The procedure: (§1) The D1 cells, purchased from American Type Culture Collection, were plated in 48-well plates at a density of 3×10^4 cells/well. Once confluence was obtained, the cells were cultured in bone medium (BM, prepared with DMEM, 10% FBS, 100 U/mL penicillin, 100 μg/mL streptomycin, […] ascorbic acid, 1% NEAA, 1.5 g sodium bicarbonate) in the presence of compound 1. After 3 days, BM was replaced with an osteogenesis induction medium (OIM prepared with BM, 10^−2 M β-glycerophosphate and 10^−7 M dexamethasone). […] The medium was changed every 2 days. For the quantitative value of mineralization, the cells were washed with PBS triplex and fixed with 10% formalin for 30 minutes at room temperature. Thereafter, the cells were washed with deionized water triplex, and then stained with Alizarin Red S solution ([…], 80 mM, pH 4) for 10 minutes at room temperature. The cells were washed with deionized water triplex and dried overnight at room temperature. The Alizarin Red S was released from the cell matrix by being mixed with 10% acetic acid(aq) for 30 minutes. The concentration of Alizarin Red S was determined by measuring the absorbance at 415 nm.
The abilities of compounds 4˜11 to induce cell mineralization were evaluated followed the same method above, only remove dexamethasone from the recipe of osteogenesis induction medium.

Data set [3] deals with zebrafish. Put plainly: Bone-targeting of test compounds in zebrafish. In kind it is in vivo. To be noted: living zebrafish, 3.2 μM, fluorescence microscope, FIG. 9(a), 9(b).
Experimental: Calcein, which is a known staining dye for the mineral in animals, was used as a positive control group.
The AB strain of wild-type zebrafish was used for this study. Embryos were collected after natural spawning, staged according to standard criteria, and raised synchronously at 28.5° C. in Hank's buffer (13.7 mM NaCl, 540 M KCl, 25 μM Na2HPO4, 44 μM KH2PO4, 300 μM CaCl2, 100 μM MgSO4, 420 μM NaHCO3, pH 7.4). Zebrafish larvae at 2 dpf were exposed to test compounds (3.2 μM) for 3 days in a 24-well plate. At 7 dpf, the fish were anesthetized using tricaine-methanesulfonate (MS 222) and mounted on depression glass slides with methyl-cellulose (3%), and the images of the zebrafish were acquired using a Leica DM-6000 CS fluorescence microscope (Leica Instruments Inc., Wetzlar, Germany). All of the images were acquired using a SPOT Xplorer Digital camera (Diagnostic Instruments, Inc., Sterling Heights, Mich., USA). Each image was taken at 60-sec.
Data set [4] deals with D1 cells. Put plainly: Induction of mineralization (Alizarin Red S), FIG. 7. The format is cell-based, rat. The procedure:
Following the tests above, the ability of inducing mineralization of the compounds to D1 cells was tested.
as §1

Data set [5] has as its system human adipose stem cells (hADSC). In words: Cytotoxicity MTS assay on human adipose stem cells. The procedure: Statins are known agents that induced stem cells to be osteogenesis.
In a 96-well plate, human adipose stem cells (hADSC) were cultured to an initial culture density of 6×10^3 cells per well in K medium (Keratinocyte-SFM, GIBCO-Invitrogen Corporation). […] The MTS agent was added to the culture medium for 3 hours, then the medium was removed and the cells were washed with PBS (phosphate buffered saline), and 100 μL of DMSO (dimethyl sulfoxide) was added to the wells to promote the dissolution of formazan. The DMSO solution containing formazan was measured using UV spectrophotometer at 490 nm wavelength, and the survival of cells was judged by the value of absorbance.

Data set [6] relates to zebrafish. Put plainly: Bone formation induced by test compounds in zebrafish (calcein staining). To be noted: zebrafish larvae, 0.32 μM, calcein stain, FIG. 9(c). The format is in vivo. The procedure: The non-oligopeptide derivative 7 which had the most outstanding overall performance was selected from the above experiments. In the study for increasing the bone mass of zebrafish, when 0.1 or 1 μM of compound 7 were treated, both can promote bone formation in the zebrafish, and the increase range was between 30% and 50% compared with the non-administration group.
Zebrafish larvae at 2 dpf were treated with test compounds (0.32 μM) for 6 days in a 24-well plate. At 7 dpf, the fish were transferred to 6-cm dishes (8 fish/dish) for bone staining using calcein solution. The calcein solution was prepared at 0.2% by dissolving 2 g of calcein powder (Sigma Chemical, St. Louis, Mo.) in 1 liter of deionized water. The immersion time was 10 minutes at 7 dpf. After the immersion, the embryos were rinsed a number of times in fresh water, and then allowed to stand for 10 mins to allow the excess stain diffusion from the larvae tissue. The embryos were then euthanized in tricaine-methanesulfonate (MS 222) and mounted on depression glass slides with methyl-cellulose (3%). […] Each image was taken at 200 mini-seconds, then the fluorescence of the calcein stain images was calculated using NIH Image J (NIH open software with Macbiophotonics plugins). […]

Data set [7] in a line: Combination with HAP monitored by fluorescent microscope. To be noted: FIG. 6. In kind it is physicochemical. The source says: If compound 1-F is combined with HAP, it can be monitored using a fluorescent microscope.
Data set [8] deals with zebrafish. To be noted: reported by Fleming; cited from earlier work.

As a reminder, the IC50 is the concentration at which inhibition is half-maximal. High values mean weaker potency, low ones greater potency.

Each structure is given as a SMILES string. Read-outs that look alike come from different tables or passages of the source. A value given as a limit tells only on which side of the number the result lay.

For `CCC(C)(C)C(=O)O[C@H]1C[C@@H](C)C=C2C=C[C@H](C)[C@H](CC[C@@H](O)C[C@@H](O)CC(=O)NCCOCCO)[C@H]21` [Compound 7], the IC50 on HMG-CoA reductase stood at 0.171 ± 0.0092 µM; in the data set with D1 cells [1], 269.1 ± 1.04 µM. In “Solubility comparison”, the solubility entry is listed as “higher than simvastatin”. Moreover, in the data set with D1 cells [1], the “IC50 compared with simvastatin” value was 83 fold. Further, the “induction of cell mineralization” value in the data set with D1 cells [2] (1 μM, Day 9, FIG. 8(a)) is on record as “clearly induced cell mineralization”; in the data set on D1 cells [2] (1 μM, Day 11, FIG. 8(b)) it was “excellent ability to induce cell mineralization”; in the data set on D1 cells [2] (4 μM, FIG. 8(c)), “obvious ability to induce cell mineralization”.
`CCC(C)(C)C(=O)O[C@H]1C[C@@H](C)C=C2C=C[C@H](C)[C@H](CC[C@@H](O)C[C@@H](O)CC(=O)O)[C@H]21` [Compound 4, simvastatin acid, reference compound]: the IC50 was found to be 0.263 ± 0.0834 µM against HMG-CoA reductase and 29.4 ± 1.02 µM in the data set with D1 cells [1]. For the same compound, the “induction of cell mineralization” value in the data set on D1 cells [2] (4 μM, FIG. 8(c)) is reported as “can only induce mineralization effectively under a concentration of 4 μM”.
Take `CCC(C)(C)C(=O)O[C@H]1C[C@@H](C)C=C2C=C[C@H](C)[C@H](CC[C@@H](O)C[C@@H](O)CC(=O)NCCCO)[C@H]21` [Compound 6]: the figures for the IC50 against HMG-CoA reductase and with D1 cells [1] were 1.13 ± 0.0895 µM and 161 ± 3.76 µM, respectively. Also, the “induction of cell mineralization” value with D1 cells [2] (1 μM, Day 11, FIG. 8(b)) is reported as “excellent ability to induce cell mineralization”.
On to `O=C(O)CN(CC(=O)O)Cc1cc2c(cc1O)Oc1cc(O)c(CN(CC(=O)O)CC(=O)O)cc1C21OC(=O)c2ccccc21` [Calcein, reference compound], for which the “bone-targeting (fluorescence on the bones)” value in the data set on zebrafish [3] is recorded as “fluorescent staining on the bone can be observed”.
For `CCC(C)(C)C(=O)O[C@H]1C[C@@H](C)C=C2C=C[C@H](C)[C@H](CC[C@@H](O)C[C@@H](O)CC(=O)NCCO)[C@H]21` [Compound 5], the results for the IC50 at HMG-CoA reductase and in the data set on D1 cells [1] were 1.02 ± 0.0509 µM and 117 ± 8.07 µM, respectively. Besides, the “induction of cell mineralization” value was “clearly induced cell mineralization” in the data set on D1 cells [2] (1 μM, Day 9, FIG. 8(a)) and “excellent ability to induce cell mineralization” in the data set on D1 cells [2] (1 μM, Day 11, FIG. 8(b)).
For `CCC(C)(C)C(=O)O[C@H]1C[C@@H](C)C=C2C=C[C@H](C)[C@H](CC[C@@H](O)C[C@@H](O)CC(=O)N[C@@H](CCCCNC(=O)[C@H](CC(=O)O)NC(=O)[C@H](CC(=O)O)NC(=O)[C@H](CC(=O)O)NC(=O)[C@H](CC(=O)O)NC(=O)[C@H](CC(=O)O)NC(=O)[C@H](CC(=O)O)NC(=O)[C@H](CCCCNC(=S)Nc3ccc4c(c3)C(=O)OC43c4ccc(O)cc4Oc4cc(O)ccc43)NC(=O)OCCOCCOCCOCCOCCOCCOCCOCCOCCOCCOCCOC)C(=O)NCC(=O)O)[C@H]21` [Compound 1-F], the induction of mineralization entry with D1 cells [4] (15 μM) and in the data set with D1 cells [4] (over 20 μM) was “can induce mineralization of D1 cells” throughout. Moreover, the “IC50 compared with simvastatin” value in data set [5] (cytotoxicity, hADSC) was 300 fold. Besides, the “promotion of bone formation compared with the non-administration group (control)” value in the data set on zebrafish [6] is “up to 50%”. For the same compound, the “effective inhibitory concentration compared with simvastatin” value on HMG-CoA reductase is 500 fold. For the same compound, the “combination with HAP” value in data set [7] was “combines on the surface of HAP”. The “bone-targeting (fluorescence on the bones)” value in the data set on zebrafish [3] was “targets the bones successfully”.
Turning to `CCC(C)(C)C(=O)O[C@H]1C[C@@H](C)C=C2C=C[C@H](C)[C@H](CC[C@@H](O)C[C@@H](O)CC(=O)NCc3ccccn3)[C@H]21` [Compound 9], the “effective inhibitory concentration compared with simvastatin” value on HMG-CoA reductase was determined as 500 fold. The IC50 is > 30 µM against HMG-CoA reductase and 97.3 ± 7.9 µM with D1 cells [1].
Take `CCC(C)(C)C(=O)O[C@H]1C[C@@H](C)C=C2C=C[C@H](C)[C@H](CC[C@@H](O)C[C@@H](O)CC(=O)NN)[C@H]21` [Compound 8]: the IC50 stood at 0.95 ± 0.0801 µM at HMG-CoA reductase and 106 ± 3.3 µM with D1 cells [1].
In the case of `CCC(C)(C)C(=O)O[C@H]1C[C@@H](C)C=C2C=C[C@H](C)[C@H](CC[C@@H]3C[C@@H](O)CC(=O)O3)[C@H]21` [Simvastatin, (1S,3R,7S,8S,8aR)-8-{2-[(2R,4R)-4-hydroxy-6-oxotetrahydro-2H-pyran-2-yl]ethyl}-3,7-dimethyl-1,2,3,7,8,8a-hexahydronaphthalen-1-yl2,2-dimethylbutanoate, reference compound], the IC50 is 3.25 ± 0.31 µM in [5] (Homo sapiens, 72 h) and 3.25 ± 0.31 µM in the data set with D1 cells [1]. In addition, the “promotion of bone formation compared with the non-administration group (control)” value with zebrafish [6] was “did not promote bone formation”. The “bone growth of zebrafish” value in the data set on zebrafish [8] is recorded as “does not benefit in the bone growth of zebrafish”.
As for `CCCNC(=O)C[C@H](O)C[C@H](O)CC[C@@H]1[C@@H]2C(=C[C@H](C)C[C@@H]2OC(=O)C(C)(C)CC)C=C[C@@H]1C` [Compound 11], the IC50 came out at 21.6 µM on HMG-CoA reductase and 94.1 ± 10.6 µM in the data set on D1 cells [1].
For `C=CCNC(=O)C[C@H](O)C[C@H](O)CC[C@@H]1[C@@H]2C(=C[C@H](C)C[C@@H]2OC(=O)C(C)(C)CC)C=C[C@@H]1C` [Compound 10], in that order: 26.6 µM and 92.2 ± 2.1 µM.
